Test results published in patent US8410064B2, “Classical cannabinoid metabolites and methods of use thereof” (priority 2009, dated 2013).

Assays:
human UGTs [1] = assay: LC-MS/MS confirmation of glucuronidated products; assay type: in vitro ADME; settings: recombinant protein, 750 μM substrate, UDP-glucuronic acid 4 mM, 180 min, negative ion mode
Method: FIG. 3 depicts a series of graphs illustrating RP-HPLC chromatographs of glucuronidated-product ion experiments. Tracings represent organic-soluble metabolites generated during incubation of recombinant protein with UDP-glucuronic acid (4 mM) and 750 μM of each substrate (A) Δ^9-THC, (B) CBN, (C) 11-OH-THC, (D) CBD, and (E) COOH-THC. Each substrate was incubated individually for 180 min. Control reactions omitted the respective substrate. MS/MS data were obtained in negative ion mode, as described in the Examples.
Liquid chromatography-tandem mass spectrometry (LC-MS/MS) analyses for product confirmation were performed using an Agilent 1100 HPLC system (Santa Clara. Calif.) which was interfaced with an API 4000 triple quadrupole (MS/MS) mass spectrometer (Applied Biosystems. Foster City. Calif.). Instrument operation and data acquisition was controlled through the Analyst software package (Version 1.4.2, Applied Biosystems). The HPLC system consisted of an autosampler, a binary pump, and a column oven. […]
Trace amounts of glucuronidated product was detected for all the substrates, but in some cases, where kinetic information could not be obtained, the physiological significance remains to be determined. […] In particular, the presence of bis- and/or diglucuronidated products was not detected.

recombinant human UGT2B7 = molecular target: T1, recombinant human UGT2B7 (Homo sapiens, UniProt P16662); assay: Glucuronidation by recombinant UGT2B7 (activity screen); settings: 750 μM substrate, UDP-GlcUA 4 mM, 90 min
T1 sequence (P16662 24-529): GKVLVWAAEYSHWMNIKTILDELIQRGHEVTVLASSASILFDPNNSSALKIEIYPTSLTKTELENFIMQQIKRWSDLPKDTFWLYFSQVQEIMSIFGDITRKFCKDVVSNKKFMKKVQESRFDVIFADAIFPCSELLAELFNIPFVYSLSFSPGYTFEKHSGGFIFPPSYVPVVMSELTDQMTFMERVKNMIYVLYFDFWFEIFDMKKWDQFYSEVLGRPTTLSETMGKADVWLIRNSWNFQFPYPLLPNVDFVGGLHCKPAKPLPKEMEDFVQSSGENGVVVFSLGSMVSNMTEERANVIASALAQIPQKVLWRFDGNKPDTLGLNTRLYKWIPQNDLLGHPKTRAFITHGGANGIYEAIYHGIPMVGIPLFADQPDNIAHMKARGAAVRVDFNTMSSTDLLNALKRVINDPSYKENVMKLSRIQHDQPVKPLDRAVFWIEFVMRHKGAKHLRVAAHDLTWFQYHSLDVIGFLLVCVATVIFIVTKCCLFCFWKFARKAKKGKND

[2] = molecular target: T2, recombinant human UGT2B17 (Homo sapiens, UniProt O75795); assay: Glucuronidation by recombinant UGT2B17 (activity screen); settings: 750 μM substrate, UDP-GlcUA 4 mM, 90 min
T2 sequence (O75795 24-530): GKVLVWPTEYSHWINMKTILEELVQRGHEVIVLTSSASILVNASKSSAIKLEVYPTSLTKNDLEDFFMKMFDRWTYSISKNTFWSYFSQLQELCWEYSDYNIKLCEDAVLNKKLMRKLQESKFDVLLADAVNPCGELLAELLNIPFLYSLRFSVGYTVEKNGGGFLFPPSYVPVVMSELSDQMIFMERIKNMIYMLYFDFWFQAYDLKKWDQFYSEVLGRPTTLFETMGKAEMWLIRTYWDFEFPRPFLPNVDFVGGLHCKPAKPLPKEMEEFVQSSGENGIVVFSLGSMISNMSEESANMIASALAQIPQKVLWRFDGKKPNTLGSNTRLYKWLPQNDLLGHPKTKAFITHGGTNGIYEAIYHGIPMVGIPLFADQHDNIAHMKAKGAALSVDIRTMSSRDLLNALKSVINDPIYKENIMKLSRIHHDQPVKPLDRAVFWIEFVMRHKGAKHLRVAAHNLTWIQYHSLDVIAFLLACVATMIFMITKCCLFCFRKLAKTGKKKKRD

human liver microsomes = assay: Glucuronidation by human liver microsomes (activity screen); settings: human liver microsomes (HLM); 750 μM substrate, UDP-GlcUA 4 mM, 90 min
human UGTs [3] = assay: Glucuronidation activity across the tested human recombinant UGTs; settings: 12 human recombinant UGTs; 750 μM substrate, UDP-GlcUA 4 mM, 90 min
recombinant human UGT1A9 = molecular target: T3, recombinant human UGT1A9 (Homo sapiens, UniProt O60656); assay: Glucuronidation by recombinant UGT1A9 (activity screen and steady-state kinetics); settings: 750 μM substrate, UDP-GlcUA 4 mM, 90 min
T3 sequence (O60656 26-530): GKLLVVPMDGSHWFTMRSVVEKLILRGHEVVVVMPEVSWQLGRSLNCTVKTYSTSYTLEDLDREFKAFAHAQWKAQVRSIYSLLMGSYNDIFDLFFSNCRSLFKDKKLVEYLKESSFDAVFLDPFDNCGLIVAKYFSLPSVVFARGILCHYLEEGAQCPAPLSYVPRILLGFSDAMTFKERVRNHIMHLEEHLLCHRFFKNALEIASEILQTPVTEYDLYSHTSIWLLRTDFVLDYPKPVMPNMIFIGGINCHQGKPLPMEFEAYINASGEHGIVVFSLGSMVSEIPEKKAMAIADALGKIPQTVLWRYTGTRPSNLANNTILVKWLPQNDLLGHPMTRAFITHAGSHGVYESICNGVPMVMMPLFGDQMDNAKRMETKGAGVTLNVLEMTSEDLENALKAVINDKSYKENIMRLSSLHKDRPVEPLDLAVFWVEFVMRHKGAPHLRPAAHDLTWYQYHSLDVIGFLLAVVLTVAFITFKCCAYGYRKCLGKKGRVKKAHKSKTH

Row | Compound | glucuronidated product detected by LC-MS/MS (human UGTs [1]) | glucuronidation activity (initial screen) (recombinant human UGT2B7) | glucuronidation activity (initial screen) [2] | glucuronidation activity (initial screen) (human liver microsomes) | glucuronidation activity (initial screen), overall (human UGTs [3]) | glucuronidation activity (initial screen) (recombinant human UGT1A9)
1 | C=C(C)[C@@H]1CCC(C)=C[C@H]1c1c(O)cc(CCCCC)cc1O [CBD, cannabidiol] | confirming the glucuronide production | minimal amount of a glucuronidated CBD product | minimal amount of a glucuronidated CBD product | minimal amount of a glucuronidated CBD product | limited | minimal amount of a glucuronidated CBD product
2 | Δ^9-Tetrahydrocannabinol [(−)-Δ^9-THC] | confirming the glucuronide production |  |  |  |  | 
